By Ki is commonly meant the dissociation constant of the complex between target and ligand, obtained from inhibition or displacement.

For the assay, the target named is Rab7 GTPase wildtype (dog), GST fusion. The experiment in a line: inhibition of fluorescent GTP loading on Rab7 – biochemical, dog Rab7, bead multiplex flow cytometry, Bodipy-FL-GTP, pyrazoline series, SAR follow-up (AID 2041). Conditions: Bead-based flow cytometry, Bodipy-FL-GTP binding; Ki calculated from EC50.
In the case of `COc1ccc(C2CC(c3cccc(Cl)c3)=NN2c2ccc(S(N)(=O)=O)cc2)cc1` (stereo not drawn), the Ki is 10 nM. With `COc1ccc(C2CC(c3ccc(F)cc3)=NN2c2cccc(F)c2)cc1OC` (stereo not drawn), the Ki was 1470 nM. As to `COc1ccc(C2=NN(c3ccccc3)C(c3ccc(Cl)cc3)C2)cc1` (stereo not drawn), the inhibition constant (Ki) is 40 nM. As for `COc1ccc(C2CC(c3ccc(F)cc3)=NN2c2cc(Cl)ccc2Cl)cc1` (stereo not drawn), the Ki is 730 nM. Turning to `O=S(=O)(c1ccc(N2N=C(c3ccccc3)CC2c2ccccc2)cc1)C(F)F` (stereo not drawn), the inhibition constant Ki is 30 nM.

Take `COc1ccc(C2=NN(c3cccc(F)c3)C(c3ccc(OC)cc3)C2)cc1` (stereo not drawn): the Ki was 10 nM. For `COc1ccccc1N1N=C(c2ccccc2)CC1c1ccccc1` (stereo not drawn), the Ki is 660 nM. The figure for `Clc1ccc(N2N=C(c3ccccc3)CC2c2ccccc2)cc1` (stereo not drawn) is 430 nM.

The values are drawn from PubChem BioAssay AID2041 (NMMLSC, 2009).
